Drawing on patent publication USRE39088E1, “Amide compounds and use of the same” (Japan Tobacco, Inc., priority 1995, dated 2006), this text covers IC50 for 56 compounds.

Counter-ions that a name gives are not always drawn.

The test system of the first experiment is IL-8. The experiment can be described thus: Suppression of production of inflammatory cytokines: IL-8 in LPS-stimulated human peripheral blood monocytes (ELISA). As to conditions: Homo sapiens, Monocyte, 20 h, supernatant 20 hours after LPS. It counts as cell-based. The method, then: Suppression of production of inflammatory cytokines
Thirty ml of human peripheral blood added with heparin was placed on Ficol-Paque (15 ml), and centrifuged at 400 G for 40 minutes at room temperature. The obtained monocyte fraction layers were collected and washed three times with E-MEM medium. The cells were adjusted to a final concentration of 0.5×10^5 cells/800 μl with RPMI-1640 medium containing 5% bovine fetal serum (2-mercaptoethanol), and seeded in a 24 well plant by 800 μl. A test sample (100 μl) was added and 100 μl of lipopolysarcharide (LPS, 100 μg/ml) was added one hour later. The supernatant was taken at 20 hours after stimulation with LPS, and amounts of various cytokines were determined using an ELISA kit.
The IC50 is the concentration that inhibits the measured activity by half. A lower IC50 goes with inhibition by little substance. `CCOC(=O)C(Cc1ccccc1)NC(=O)c1cc(Cl)c(OCCCCNC)cc1O` (centres unmarked) [Example 71]: half-maximal inhibition (IC50) required 0.04 µM.

Compound `NCCCCOc1c(Cl)cc(C(=O)N[C@@H](Cc2ccccc2)C(N)=O)c(O)c1Cl` [Example 139] came in with an IC50 of 4 µM.

The compound `CNCCCCOc1cc(O)c(C(=O)N[C@@H](Cc2ccccc2)C(=O)OC)cc1C` [Example 76] gave an IC50 of 0.3 µM.

The compound `CNCCCCCc1ccc(C(=O)N[C@@H](Cc2ccccc2)C(=O)OC)c(O)c1` [Example 89] yielded an IC50 of 0.6 µM.

Take `CCOC(=O)C(Cc1ccccc1)NC(=O)c1cc(Cl)c(OCCC2CCNCC2)c(Cl)c1O` (centres unmarked) [Example 69]: the IC50 was under 0.001 µM.

`CCOC(=O)C(Cc1ccccc1)NC(=O)c1cc(Cl)c(CCCN2CCNCC2)c(Cl)c1O` (centres unmarked) [Example 102] returned an IC50 of 0.002 µM.

`CN(C)CCCCOc1c(Cl)cc(C(=O)N[C@@H](Cc2ccccc2)C(=O)OCc2ccccc2)c(O)c1Cl` [Example 55]: the IC50 is under 0.01 µM.

As for `CNCCCCOc1c(Cl)cc(C(=O)N[C@@H](Cc2ccccc2)C(=O)OCC(C)C)c(O)c1Cl` [Example 29], the IC50 is under 0.01 µM.

As to `NCCCCOc1c(Cl)cc(C(=O)N[C@@H](Cc2ccccc2)C(=O)OC2C3CC4CC(C3)CC2C4)c(O)c1Cl` (some centres unmarked) [Example 49], the IC50 was determined as 0.02 µM.

For the compound `CCOC(=O)C(Cc1ccccc1)NC(=O)c1cc(Cl)c(OCCN2CCN(C)CC2)c(Cl)c1OC(C)=O` (centres unmarked) [Example 125], the midpoint of inhibition, the IC50, lay at 0.01 µM.

`CCOC(=O)[C@H](Cc1ccccc1)NC(=O)c1ccc(-c2ccc(OCCCCNC)cc2)cc1` [Example 147, N-[4-[4-(4-Methylaminobutoxy)phenyl]benzoyl]-L-phenylalanine ethyl ester hydrochloride] displayed an IC50 of 2 µM.

In turn, `CNCCCCOc1c(Cl)cc(C(=O)N[C@@H](CC2CCCCC2)C(=O)OC)c(O)c1Cl` [Example 34] returned an IC50 of 2 µM. This counts as single-digit micromolar.

Compound `NCCCCOc1c(Cl)cc(C(=O)N[C@@H](Cc2ccccc2)C(=O)Nc2ccccn2)c(O)c1Cl` [Example 142] returned an IC50 of 0.4 µM.

Turning to `CCOC(=O)C(Cc1ccccc1)NC(=O)c1cc(Cl)c(OCCC2CCN(C)CC2)c(Cl)c1O` (centres unmarked) [Example 70], the IC50 amounted to 0.006 µM.

Compound `CNCCCCOc1ccc(C(=O)N[C@@H](Cc2ccccc2)C(=O)OC)c(O)c1Cl` [Example 7] gave an IC50 of 8 µM.

In turn, `CCOC(=O)C(Cc1ccccc1)NC(=O)c1cc(Cl)c(OCCCCNC)c(Cl)c1O` (centres unmarked) [Example 21] came in with an IC50 of under 0.01 µM.

Take `CNCCCCOc1c(Cl)cc(C(=O)N[C@@H](Cc2ccccc2)C(=O)OCCN(C(C)C)C(C)C)c(O)c1Cl` [Example 85]: the midpoint of inhibition, the IC50, lay at 0.07 µM.

Turning to `CCOC(=O)C(Cc1ccccc1)NC(=O)c1cc(Cl)c(CCCC2CCNCC2)c(Cl)c1O` (centres unmarked) [Example 101], the IC50 came to 0.003 µM.

`CCOC(=O)C(Cc1ccccc1)N(C)C(=O)c1cc(Cl)c(OCCCCN)c(Cl)c1O` (centres unmarked) [Example 20]: the IC50 was 29 µM.

Consider `COC(=O)[C@H](Cc1ccccc1)NC(=O)c1cc(Cl)c(OCCCCO)c(Cl)c1O` [Example 87], for which the IC50 came to 0.2 µM.

On to `CC(C)COC(=O)[C@H](Cc1ccccc1)NC(=O)c1cc(Cl)c(OCCCCN)c(Cl)c1O` [Example 28], for which the IC50 is under 0.01 µM.

`CCOC(=O)C(Cc1ccccc1)NC(=O)c1cc(Cl)c(OCCN2CCNCC2)c(Cl)c1O` (centres unmarked) [Example 64] had an IC50 of 0.05 µM.

As to `CN1CCC(OC(=O)[C@H](Cc2ccccc2)NC(=O)c2cc(Cl)c(OCCCCN)c(Cl)c2O)CC1` [Example 48], the midpoint of inhibition, the IC50, lay at 0.2 µM.

`CCOC(=O)C(Cc1ccccc1)NC(=O)c1cc(Cl)c(OCCCCN(C)C)cc1O` (centres unmarked) [Example 72] gave an IC50 of 0.1 µM.

`COC(=O)[C@H](Cc1ccccc1)NC(=O)c1cc(Cl)c(OCCN2CCN(C)CC2)c(Cl)c1O` [Example 58] registered an IC50 of 0.02 µM.

Compound `NCCCCOc1c(Cl)cc(C(=O)N[C@@H](Cc2ccccc2)C(=O)ON=C2CCCCC2)c(O)c1Cl` [Example 57] gave an IC50 of 0.05 µM. Compared with the last compound, the IC50 is about 2.5-fold higher.

`CCOC(=O)C(Cc1ccccc1)NC(=O)c1cc(Cl)c(OCCCN2CCN(C)CC2)c(Cl)c1O` (centres unmarked) [Example 68] yielded an IC50 of 0.001 µM.

As to `NCCCCOc1c(Cl)cc(C(=O)N[C@@H](Cc2ccccc2)C(=O)Nc2ccc(F)cc2)c(O)c1Cl` [Example 141], the IC50 is 3 µM.

Consider `COC(=O)[C@H](Cc1ccccc1)NC(=O)c1cc(Cl)c(OCCN2CCN(C)C(C)C2)c(Cl)c1O` (some centres unmarked) [Example 63], for which the IC50 is 0.1 µM.

For `CCOC(=O)[C@H](Cc1ccccc1)NC(=O)c1ccc2oc(SCCCNC)nc2c1` [Example 152, (2S)-2-[2-(3-Methylaminopropylsulfanyl)benzoxazole-5-carbonyl-amino]-3-phenylpropionic acid ethyl ester hydrochloride], half-maximal inhibition (IC50) was put at 7 µM.

Compound `CCNCCCCOc1c(Cl)cc(C(=O)N[C@@H](Cc2ccccc2)C(=O)OC)c(O)c1Cl` [Example 16] displayed an IC50 of 0.03 µM.

`CC1CCCC(C)C1OC(=O)[C@H](Cc1ccccc1)NC(=O)c1cc(Cl)c(OCCCCN)c(Cl)c1O` (some centres unmarked) [Example 47] registered an IC50 of 3 µM.

Regarding `CCOC(=O)C(Cc1ccccc1)NC(=O)c1cc(Cl)c(OCCCCCCCN)c(Cl)c1O` (centres unmarked) [Example 26], the IC50 amounted to 0.009 µM.

For `CCOC(=O)C(Cc1ccccc1)NC(=O)c1cc(Cl)c(OCCCN2CCNCC2)c(Cl)c1O` (centres unmarked) [Example 67], the IC50 came to 0.05 µM.

As to `CC(OC(=O)[C@H](Cc1ccccc1)NC(=O)c1cc(Cl)c(OCCCCN)c(Cl)c1O)N1CCNCC1` (some centres unmarked) [Example 56], the half-inhibitory concentration (IC50) is 4 µM.

Compound `Cc1noc([C@H](Cc2ccccc2)NC(=O)c2cc(Cl)c(OCCCCN)c(Cl)c2O)n1` [Example 144, N-[4-(4-Aminobutoxy)-3,5-dichloro-2-hydroxybenzoyl]-1-(3-methyl-1,2,4-oxadizaol-5-yl)-2-phenylethylamine hydrochloride] had an IC50 of 29 µM.

In turn, `CCOC(=O)C(Cc1ccccc1)NC(=O)c1cc(Cl)c(CCCN2CCC(N)CC2)c(Cl)c1O` (centres unmarked) [Example 103] showed an IC50 of 0.7 µM.

Turning to `CCOC(=O)C(Cc1ccccc1)NC(=O)c1cc(Br)c(OCCCCN)cc1O` (centres unmarked) [Example 74], it took 0.07 µM to reach half-maximal inhibition (IC50). Against the preceding compound, the IC50 is about 10-fold lower.

Regarding `CCOC(=O)COC(=O)[C@H](Cc1ccccc1)NC(=O)c1cc(Cl)c(OCCCCN)c(Cl)c1O` [Example 43], the midpoint of inhibition, the IC50, lay at 0.03 µM.

For `CCOC(=O)C(Cc1ccccc1)NC(=O)c1cc(C)c(OCCCCNC)c(C)c1O` (centres unmarked) [Example 77], half-maximal inhibition (IC50) required 3 µM. This IC50 is about 100-fold higher than that of the compound before.

`CN(C)CCCCCc1c(Cl)cc(C(=O)N[C@@H](Cc2ccccc2)C(=O)O)c(O)c1Cl` [Example 133] displayed an IC50 of 0.2 µM.

Turning to `CCOC(=O)C(Cc1ccccc1)NC(=O)c1cc(Cl)c(OC(=O)C2(CC)CCNCC2)cc1O` (centres unmarked) [Example 156], the IC50 was 2 µM.

As for `CNCCCCOc1c(Cl)cc(C(=O)N[C@@H](Cc2ccccc2)C(=O)OC)c(OC(=O)COC(C)=O)c1Cl` [Example 110], the IC50 was under 0.01 µM.

In the case of `CNCCCCCc1c(Cl)cc(C(=O)N[C@@H](Cc2ccccc2)C(=O)OC)c(O)c1Cl` [Example 91, N-[3,5-Dichloro-2-hydroxy-4-(5-methylaminopentyl)benzoyl]-L-phenylalanine methyl ester hydrochloride], the IC50 stood at 0.001 µM.

The compound `CCOC(=O)C(Cc1ccccc1)NC(=O)c1cc(Cl)c(CCCC2CCN(C)CC2)c(Cl)c1O` (centres unmarked) [Example 100] returned an IC50 of 0.001 µM. This lies in the single-digit nanomolar range.

Take `CCOC(=O)C(Cc1ccccc1)NC(=O)c1cc(Cl)c(CCCCCN(C)C)cc1O` (centres unmarked) [Example 94]: the IC50 was 1 µM.

Compound `CNCCCCNc1c(Cl)cc(C(=O)N[C@@H](Cc2ccccc2)C(=O)OC)c(O)c1Cl` [Example 136, N-[3,5-Dichloro-2-hydroxy-4-(4-methylaminobutylamino)benzoyl]-L-phenylalanine methyl ester dihydrochloride] had an IC50 of 0.2 µM. Compared with the last compound, the IC50 is about 5-fold lower.

With `CC1CN(CCOc2c(Cl)cc(C(=O)N[C@@H](Cc3ccccc3)C(=O)O)c(O)c2Cl)CCN1` (some centres unmarked) [Example 129], the IC50 was 2 µM.

Consider `COC(=O)[C@H](Cc1ccccc1)NC(=O)c1cc2cccc(OCCCCN)c2cc1O` [Example 146, (2S)-3-Phenyl-2-[5-(4-aminobutoxy)-3-hydroxy-2-naphthoylamino]-propionic acid methyl ester hydrochloride], for which half-maximal inhibition (IC50) was put at 5 µM.

Turning to `CNCCOc1c(Cl)cc(C(=O)N[C@@H](Cc2ccccc2)C(=O)OC)c(O)c1Cl` [Example 11], the IC50 was found to be 0.4 µM.

Regarding `CC(C)(C)OC(=O)[C@H](Cc1ccccc1)NC(=O)c1cc(Cl)c(OCCCCN)c(Cl)c1O` [Example 30], it took 0.6 µM to reach half-maximal inhibition (IC50).

With `COC(=O)[C@H](Cc1ccccc1)NC(=O)c1cc(Cl)c(OCCN2CCNC(C)C2)c(Cl)c1OC(C)=O` (some centres unmarked) [Example 122], the IC50 was under 0.01 µM.

The experiment is the same for the next values; noted with them: Monocyte, supernatant 20 hours after LPS.
Turning to `CN1CCN(CCOc2c(Cl)cc(C(=O)N[C@@H](Cc3ccccc3)C(=O)O)c(O)c2Cl)CC1` [Example 134], inhibition was half-maximal at 0.2 µM (IC50).

The same experiment, now with this note: supernatant 20 hours after LPS.
Regarding `CNCCCCOc1c(Cl)cc(C(=O)N[C@@H](Cc2ccccc2)C(=O)NO)c(O)c1Cl` [Example 143, N-[3,5-Dichloro-2-hydroxy-4-(4-methylaminobutoxy)benzoyl]-L-phenylalanylhydroxyamide], the IC50 worked out at 3 µM.

The experiment is the same for the next values; noted with them: supernatant 20 hours after LPS, listed as Example No. 88, hydrochloride.
The compound `CNCCCCc1ccc(C(=O)N[C@@H](Cc2ccccc2)C(=O)OC)c(O)c1` [Example 88, N-[2-Hydroxy-4-(4-methylaminobutyl)benzoyl]-L-phenylalanine methyl ester hydrochloride] gave an IC50 of 3 µM. This lies in the single-digit micromolar range.

The same experiment, now with this note: supernatant 20 hours after LPS, listed as Example No. 90.
For the compound `CNCCCCc1ccc(C(=O)N[C@@H](Cc2ccccc2)C(=O)OC)c(O)c1` [Example 90], the IC50 amounted to 0.6 µM.
